Reference: patent publication EP3414211B1, “PLASTER COMPOSITION” (priority 2016, dated 2017)

Experiments:
[1] = Foam stability (foam half-life: time to recover one half of the original liquid volume from the foam); format: physicochemical
Protocol: (§1) For each mixture, foamability (foam volume) and foam stability were measured after one minute of foam generation with an Ultra Turrax system at 8200 rpm.
Also the foam stability was tested, by measuring the foam half-life, i.e. the amount of time it takes to recover one half of the original volume of liquid from a measured volume of foam.

[2] = Foamability (foam volume) after one minute of foam generation with an Ultra Turrax system at 8200 rpm; format: physicochemical
Protocol: The "foamability", i.e. the volume of foam produced, and the foam stability were tested for a number of combinations of foaming agent and co-surfactant. Specifically, a number of foaming solutions were prepared containing various amounts of foaming agent and co-surfactant. The following foaming agents were tested: FA1 mixture of linear sodium octyl sulfate, sodium decyl sulfate, and sodium dodecyl sulfate as described in EP1328485. FA2 sodium n-decyl sulfate (Empicol® 0758, available from Huntsman) FA3 alkyl ether sulfate (Millifoam® H, available from Huntsman) FA4 STEOL ® DES32-IS (alkyl ether sulfate based surfactant, available from Stepan)
Each of the foaming agents was mixed with 5 wt%, 10 wt%, and 20 wt% (relative to the weight of foaming agent) of the following co-surfactants: CS1 lauramine oxide (dodecyldimethylamine oxide), available under the trade name Empigen® OB (Huntsman Performance Products) CS2 C8-10alkyl polyglucoside available under the trade name Glucopon 215® (comparative example)
as §1

[3] = co-surfactant mixed at 5, 10, 20 wt% with foaming agents

| Half-life ([1]; 0 % CS1) [min] | Half-life increase (%) ([1]; 0 % CS1 (baseline)) | Half-life ([1]; 5 % CS1) [min] | Half-life increase (%) ([1]; 5 % CS1, versus 0 % CS1) | Half-life ([1]; 10 % CS1) [min] | Half-life increase (%) ([1]; 10 % CS1, versus 0 % CS1) | Half-life ([1]; 20 % CS1) [min] | Half-life increase (%) ([1]; 20 % CS1, versus 0 % CS1) | Foam volume increase (%) ([2]; 0 % CS1 (baseline)) | Foam volume ([2]; 0 % CS1 (wt% relative to total foaming agent and co-surfactant)) [mL] | Foam volume ([2]; 5 % CS1) [mL] | Foam volume increase (%) ([2]; 5 % CS1, versus 0 % CS1) | Foam volume ([2]; 10 % CS1) [mL] | Foam volume increase (%) ([2]; 10 % CS1, versus 0 % CS1) | Foam volume ([2]; 20 % CS1) [mL] | Foam volume increase (%) ([2]; 20 % CS1, versus 0 % CS1) | SMILES | effect of co-surfactant on foam stability [1, 3] | effect of co-surfactant on foamability (foam volume) of the foaming agents [2, 3] |
| --- | --- | --- | --- | --- | --- | --- | --- | --- | --- | --- | --- | --- | --- | --- | --- | --- | --- | --- |
|  |  |  |  |  |  |  |  |  |  |  |  |  |  |  |  | CCCCCCCCCCCC[N+](C)(C)[O-] [CS1, dodecyldimethylamine oxide] | highest foam stability improvement | significantly increase |
| 5.78 | 0 | 6.18 | 7 | 6.87 | 11 | 8.4 | 36 | 0 | 530 | 562 | 6 | 599 | 13 | 588 | 11 | CCCCCCCCCCOS(=O)(=O)[O-].[Na+] [FA2, sodium n-decyl sulfate] |  |  |
